Laboratory results as given in US20230015595A1, “USE OF VALPROIC ACID FOR REDUCING POST-OPERATIVE SCARRING FOLLOWING A GLAUCOMA SURGERY” (SANTEN PHARMACEUTICAL CO., LTD., priority 2019, published 2023).
“Also recorded” adds a separate entry of the source.

What was measured:
[1] = tested on: rabbit model of microshunt implant surgery; experiment: Rabbit model of microshunt implant surgery, MMC high/low dose and low dose MMC with VPA; assay type: in vivo
Description: The rabbit model of microshunt implant surgery using the PRESERFLO® MicroShunt (Santen) was performed and treated under these conditions: • (a) 0.4 mg/ml MMC via sponge for 1 min; • (b) 0.1 mg/ml MMC via sponge for 1 min; and • (c) 0.1 mg/ml MMC via sponge for 1 min in combination with a total of 11 injections of 300 μg/ml VPA, immediately after surgery, and once daily for first 7 days, followed by injections on days 10, 14 and 21 post-surgery.
The rabbit eyes were then evaluated.

[2] = tested on: rabbit model of microshunt implant surgery; experiment: Rabbit model of microshunt implant surgery (PRESERFLO MicroShunt), VPA alone vs PBS; assay type: in vivo
Description: The rabbit model of microshunt implant surgery using the PRESERFLO® MicroShunt (Santen) was performed with a total of 11 injections of 300 μg/ml VPA, immediately after surgery, and once daily for first 7 days, followed by injections on days 10, 14 and 21 post-surgery. The rabbit eyes were evaluated by slit lamp photography (FIG. 7).
Confocal microscopy was used to correlate bleb appearance and function. It is known that significant positively correlating features include cyst size and vasculature density/tortuosity.

[3] = tested on: human Tenons conjunctival fibroblasts; experiment: Type I collagen (Col1a1) expression in human Tenons conjunctival fibroblasts; assay type: cell-based; conditions: human Tenons conjunctival fibroblasts from three donors
Description: Likewise, for application in human, the dosage of VPA to be used was determined as in the rabbit model for effectiveness in reducing type I collagen. The effect of VPA on type I collagen expression in human Tenons conjunctival fibroblasts derived from three independent donors was investigated, and the results are as shown in FIG. 6B.

[4] = tested on: mouse model of conjunctival scarring; experiment: Mouse model of conjunctival scarring, quantitative multiphoton imaging and histology of collagen; assay type: in vivo
Description: The conjunctiva was dissected to reveal the sclera where an incision was made into the anterior chamber. The resulting fistula allowed aqueous humor to exit into and underneath the conjunctiva. The accumulated fluid underneath the sutured conjunctiva was observed as a conjunctival bleb. To determine whether VPA has the capacity to protect collagen architecture, quantitative multiphoton imaging as described in Xu S et al (J. Hepatol., 2014, 61(2):260-269) was used to measure collagen properties in the mouse model of conjunctival scarring treated with VPA. The onset of scarring, as indicated by peak production of collagen mRNA, was measured on day 7 post-surgery. The mature scar was measured on day 14 post-surgery when collagen mRNA production was subdued. To study the impact of VPA on the collagen architecture during the onset of scarring on day 7, mice were injected with 300 μg/ml VPA directly into the operated area immediately after surgery and on day 2. To determine the effect of VPA in the mature scar on day 14, mice were injected as above, with an additional injection on day 7. By this method, it could be readily observed in histologically-stained sections as well as multiphoton scans that collagen fibers in the VPA-treated eyes were thinner than those in the PBS-treated control eyes. Exemplary collagen fibers showing the thinning effect of VPA are indicated by the white arrowheads in FIG. 2.

[5] = tested on: primary rabbit conjunctival fibroblasts; experiment: Type I collagen (Col1a1) expression and cell growth in primary rabbit conjunctival fibroblasts; assay type: cell-based
Description: For application in the rabbit model of microshunt implant surgery (PRESERFLO® MicroShunt, Santen), the dosage of VPA to be used was determined using primary rabbit conjunctival fibroblasts for (1) effectiveness in reducing type I collagen, and (2) non-toxicity on cell growth, as shown in FIG. 6.

[6] = 300 μg/ml VPA, 28 days post-surgery, vs PBS
[7] = 300 μg/ml VPA, day 28 rabbit tissues
[8] = 300 μg/ml VPA, day 28 rabbit tissues, vs PBS controls

Compound: CO[C@@]12[C@H](COC(N)=O)C3=C(C(=O)C(C)=C(N)C3=O)N1C[C@@H]1N[C@@H]12 [MMC, mitomycin C]
- mRNA expression of Col1a1 ([1]; 0.1 mg/ml MMC, day 28 rabbit tissues, vs 0.4 mg/ml MMC and 0.1 mg/ml MMC+VPA, n=5): significantly higher
- bleb cysts (confocal microscopy) ([1]; rabbit, in vivo): large cysts; also recorded: smaller cysts
- bleb morphology (slit lamp) ([1]; rabbit, in vivo): starkly avascular and cystic bleb; also recorded: less avascular and mildly cystic bleb
- collagen fibers around implant tip (picrosirius red, polarised light) ([1]; rabbit, in vivo): thick collagen fibers encapsulating the implant

Compound: CCCC(CCC)C(=O)O [VPA, valproic acid]
- collagen fibers around implant tip (picrosirius red, polarised light) ([1]; VPA 300 μg/mL with 0.1 mg/ml MMC (condition c)): reduced the presence of the thick fibers encapsulating the implant
- bleb collagen fiber packing (confocal microscopy) ([2]; 300 μg/ml VPA, 28 days post-surgery, PBS tightly-packed): loosely packed collagen fibers
- bleb vasculature (confocal microscopy) ([2]; 300 μg/ml VPA, 28 days post-surgery, PBS tortuous): straight
- bleb collagen characteristics (histology) ([2]; 300 μg/ml VPA, 28 days post-surgery, compared to normal tissue): thinner and similarly organized array of collagen fibers
- COL1A1 and fibronectin fibers (immunofluorescent staining) [2, 6]: thinner and more diffusely distributed fibers
- bleb cysts (confocal microscopy) [2, 6]: large cysts
- Smad6 expression [2, 7]: significantly induced
- Vegfa expression [2, 7]: significantly elevated
- collagen transcript expression [2, 8]: significantly reduced
- fibronectin transcript expression [2, 8]: significantly reduced
- time a filtering bleb was maintained (slit lamp) ([2]; 11 injections of 300 μg/ml VPA, PBS bleb failed by day 14): at least 28 days
- lowest concentration effective in significantly reducing Col1a1 expression without disrupting cell proliferation [3]: 300 µg/mL
- collagen fibers in histologically-stained sections and multiphoton scans ([4]; 300 μg/ml VPA injected into operated area, vs PBS-treated control eyes): thinner
- number of collagen fibers per mm^2 ([4]; 300 μg/ml VPA, both time points (days 7 and 14), vs PBS): significantly reduced
- Collagen Reticulation Index (CRI) ([4]; 300 μg/ml VPA, day 7, vs PBS treatment): significant reduction
- Collagen Reticulation Index (CRI) ([4]; 300 μg/ml VPA, day 14 mature scar): lack of effect
- collagen area ratio (CAR) ([4]; 300 μg/ml VPA, days 7 and 14 post-surgery, vs PBS): significantly reduced
- collagen thickness (quantitative multiphoton analyses) ([4]; 300 μg/ml VPA, operated conjunctival sections, vs PBS): reduced
- collagen reticulation (measured as CRI and CARD) ([4]; 300 μg/ml VPA, post-operative conjunctiva): not induced
- collagen fiber density (CFD) ([4]; 300 μg/ml VPA, vs PBS controls): lack of significant difference
- lowest concentration effective in significantly reducing Col1a1 expression without disrupting cell proliferation [5]: 300 µg/mL
